Here are results for one molecule from patent US12662478B2, “ATF6 modulators and uses thereof” (Altos Labs, Inc., priority 2019, dated 2026).

In experiment [1] the target is T1, ATF6 (Homo sapiens, UniProt P18850).
T1 construct: endogenous in cells; host or cells: U2-OS (ATCC HTB-96) stably transduced with the Cignal Lenti ATF6 luc reporter (Qiagen #CLS-6031L)
T1 sequence (P18850 1-670): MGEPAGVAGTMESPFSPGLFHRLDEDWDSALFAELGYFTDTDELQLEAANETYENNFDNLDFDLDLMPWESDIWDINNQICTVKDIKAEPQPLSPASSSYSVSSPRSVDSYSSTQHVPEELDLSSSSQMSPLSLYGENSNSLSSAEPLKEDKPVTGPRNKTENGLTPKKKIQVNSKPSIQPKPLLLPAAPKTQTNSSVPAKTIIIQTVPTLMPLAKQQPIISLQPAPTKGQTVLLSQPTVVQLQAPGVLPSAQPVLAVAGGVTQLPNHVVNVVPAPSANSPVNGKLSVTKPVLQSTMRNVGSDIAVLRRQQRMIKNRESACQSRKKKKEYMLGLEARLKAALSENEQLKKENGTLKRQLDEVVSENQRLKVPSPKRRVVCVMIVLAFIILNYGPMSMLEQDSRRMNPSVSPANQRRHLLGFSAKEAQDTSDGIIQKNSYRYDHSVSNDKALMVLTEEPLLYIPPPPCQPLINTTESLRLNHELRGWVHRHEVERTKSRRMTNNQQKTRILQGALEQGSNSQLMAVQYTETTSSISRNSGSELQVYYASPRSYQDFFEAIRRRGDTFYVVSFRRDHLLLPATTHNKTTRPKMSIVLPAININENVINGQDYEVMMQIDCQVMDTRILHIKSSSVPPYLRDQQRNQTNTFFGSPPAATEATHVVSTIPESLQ
Put plainly: ERSE ATF6-luciferase assay in presence of Tg-induced ER stress (U2-OS ATF6 TRE-luciferase reporter cells). Type of experiment: cell-based. As to conditions: in presence of ER stress (thapsigargin), 8 hr, Tg only = 100%, Table 2-3. The gist of the method:
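Stable U2-OS line with lentiviral firefly luciferase driven by an mCMV promoter plus tandem ATF6 TREs. Cells were pre-treated 30 min with 1 or 10 µM compound, then thapsigargin added as 0.2 µM solution with compound maintained, 0.3% DMSO final, for 8 h. Luminescence in triplicate; vehicle subtracted, Tg alone set as 100%.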
(A reporter such as luciferase makes a cellular process visible.)

The target in experiment [2] is T1, ATF6. The experiment is described as follows: ERSE ATF6-luciferase assay in absence of ER stress (U2-OS ATF6 TRE-luciferase reporter cells). The format is cell-based. As to conditions: in absence of ER stress (no Tg), 8 hr, normalized to maximal activation with Tg, Table 3-3. The method, then:
To understand how exemplary compounds of the invention modulate the activity of ATF6 in absence or presence of endoplasmic reticulum (ER) stress, a Human bone osteosarcoma (U2-OS)-based TRE-luciferase reporter stable cell line was generated to determine the modulation of transcription of ATF6 target genes.
U2-OS cells were obtained from the American Type Culture Collection (ATCC HTB-96, ATCC Manassas, VA) and were cultured with growing medium containing Dulbecco's Modified Eagle's Medium (DMEM) (Cat. No.: SH30023.02, HyClone) supplemented with fetal bovine serum (FBS) 10% (Cat. No.: 16000044, Gibco) and 1% penicillin-streptomycin antibiotic cocktail (Cat. No.: SV30010, Hyclone).
Cignal Lenti ATF6 luc reporter (Qiagen #CLS-6031L) was used to produce a stable cell line in U2-OS cells (U2-OS ATF6 TRE-luciferase reporter). The lenti ATF6 reporter is a preparation of replication incompetent, VSV-g pseudotyped lentivirus particles expressing the firefly luciferase gene under the control of a minimal (m)CMV promoter and tandem repeats of the ATF6 transcriptional response element (TRE). The number of response elements as well as the intervening sequence between response elements has been experimentally optimized to maximize the signal to noise ratio.
Exemplary compounds of the invention and reference compounds were prepared from powder as 10 mM stock solutions in dimethyl sulfoxide (DMSO; Cat. No. #D2650, Sigma Aldrich) and stored at −80° C. in presence of N2 neutral atmosphere.
For the primary screening, 40,000 U2-OS ATF6 TRE-luciferase reporter cells were plated in poly-D-lysine (Cat. No.: P2636, Sigma) pre-coated white 96-well plates (Thermo Scientific Nunc #136101) with 100 μL of growing medium. Cells were incubated in humidified chambers for 24 hr.
For testing exemplary compounds in absence of ER-stress, cells were treated for 8 hr with 100 μL growing medium containing either vehicle (DMSO), 1 or 10 μM test compound or 0.1 μM Tg. The final concentration of DMSO in each well was kept at 0.3%. Plates were incubated in humidified chambers.
After 8 hr of incubation, plates were cooled down to room temperature for 10 min prior to luciferase assays. Luciferase reactions were performed as above. Luminescence was read by integration of 1 s with a gain of 110 in a Synergy 4 Microplate reader. All measurements were carried out in triplicate.
The average activity determined from the wells containing vehicle only (DMSO, 0% of ATF6 activity) was used as blank and subtracted from the rest of measurements. The percentage of modulation of exemplary compound was calculated by normalizing values to potential maximal activation with Tg.
ATF6 activities of exemplary compounds at 1 and 10 μM in absence of Tg-induced ER stress in the U2-OS ATF6 TRE-luciferase reporter cells were determined and are shown in Table 3-2, and Table 3-3.

`CC(C1CCOC1)n1cc(NC(=O)c2cc(-c3ccco3)on2)cn1` (stereo not shown) [Compound 3-27, 5-(furan-2-yl)-N-(1-(1-(tetrahydrofuran-3-yl)ethyl)-1H-pyrazol-4-yl)isoxazole-3-carboxamide]: on ATF6 [1] (1 μM test compound), the “ATF6 activity @ 1 μM [%]” value is on record as “+ (+ refers to 100% < % activity < 125% at 1 or 10 μM)”. Besides, the “ATF6 activity @ 10 μM [%]” value on ATF6 [1] (10 μM test compound) was “+++ (+++ refers to >150% at 1 or 10 μM test compound)”. Further, the “ATF6 activity @ 1 μM-No Tg [%]” value on ATF6 [2] (1 μM test compound) is “+ (+ refers to 0% < % activity < 25% at 1 or 10 μM test compound)”. Besides, the “ATF6 activity @ 10 μM - No Tg [%]” value at ATF6 [2] (10 μM test compound) is reported as “++ (++ refers to 25% < % activity < 50% at 1 or 10 μM test compound)”.
